Results published in US20230192661A1, “1, 4, 5, 6-TETRAHYDROPYRIMIDINE-2-AMINE DERIVATIVE” (UBE Corporation, priority 2020, published 2023).

Tested on: TGF-β activation (phosphorylated SMAD3)
Experiment: TGF-β activation inhibition test (inhibition of SMAD3 phosphorylation in TFK-1 cells)
Assay type: cell-based
Settings: 48 h, fibronectin-coated plate, cultured 2 days, read-out: IC50 (rate of inhibition of phosphorylated SMAD3)
Method: In Test Example 3, the inhibition of TGF-β activation by a compound was detected with the inhibition of SMAD3 phosphorylation as an index. In Test Example 3, the same reagents as in Test Example 1 were used unless otherwise specified.
Human fibronectin was prepared at 14 μg/mL with PBS and then dispensed at 50 μL/well to a 96-well plate. The plate was left standing at room temperature for 1 hour or longer, followed by the removal of the fibronectin solution. The plate was washed with PBS and used as a coated plate.
A test compound dissolved in DMSO was added to RPMI medium 1640 (manufactured by Thermo Fisher Scientific, Inc., 11875) containing 1% FBS and 1% penicillin/streptomycin/amphotericin B to prepare a medium containing the test compound having a concentration of two times the final concentration. This medium was added at 100 μL/well to the coated plate. TFK-1 cells (Cell Resource Center for Biomedical Research, Institute of Development, Aging and Cancer, Tohoku University) cultured in RPMI medium 1640 containing 10% FBS and 1% penicillin/streptomycin/amphotericin B were suspended in RPMI medium 1640 containing 1% FBS and 1% penicillin/streptomycin/amphotericin B to prepare a cell suspension of 1×10^6 cells/mL. The prepared cell suspension was further added at 100 μL/well and cultured for 2 days in a 5% CO2 incubator (37° C.).
Phosphorylated SMAD3 in the cells thus cultured for 2 days was measured using Phospho-SMAD3 (Ser423/425) cellular kit (manufactured by cisbio, 63ADK025), and a DeltaF value was calculated according to the calculation expression of the kit. Inhibition when 10 μM LY364947 (FUJIFILM Wako Pure Chemical Corp., 123-05981) was added instead of the test compound was defined as 100% inhibition, and inhibition when DMSO was added instead was defined as 0% inhibition. The rate of inhibition of phosphorylated SMAD3 by the test compound was calculated according to the following expression.
Rate of inhibition of phosphorylated SMAD3 (%)=[1−{(DeltaF value in the case of adding the test compound)−(DeltaF value in the case of adding 10 μM LY364947)}/{(DeltaF value in the case of adding DMSO)−(DeltaF value in the case of adding 10 μM LY364947)}]×100
An IC50 value was calculated from the rate of inhibition of phosphorylated SMAD3 by the test compound. A: IC50<10 nM, B: 10 nM≤IC50<50 nM, C: 50 nM≤IC50<100 nM, or D: IC50≥100 nM.

SMILES: O=C(O)C[C@H](NC(=O)CNC(=O)c1cc(NC2=NCC(F)CN2)c2cn[nH]c2c1)c1cc(Cl)ccc1F (stereo partly drawn) [Example 22-(b), (3S)-3-(5-chloro-2-fluorophenyl)-3-(2-(4-((5-fluoro-1,4,5,6-tetrahydropyrimidin-2-yl)amino)-1H-indazole-6-carboxamido)acetamido)propanoic acid]
- IC50: 10 to 50 nM

SMILES: O=C(O)C[C@H](NC(=O)CNC(=O)c1cc(NC2=NCC(F)CN2)c2cn[nH]c2c1)c1cc(Br)ccc1F (stereo partly drawn) [Example 23-(b), (3S)-3-(5-bromo-2-fluorophenyl)-3-(2-(4-((5-fluoro-1,4,5,6-tetrahydropyrimidin-2-yl)amino)-1H-indazole-6-carboxamido)acetamido)propanoic acid]
- IC50: 10 to 50 nM

SMILES: O=C(O)C[C@H](NC(=O)CNC(=O)c1cc(NC2=NCC(F)CN2)c2cn[nH]c2c1)c1cc(OC(F)F)cc(C(F)(F)F)c1 (stereo partly drawn) [Example 24-(b), (3S)-3-(3-(difluoromethoxy)-5-(trifluoromethyl)phenyl)-3-(2-(4-((5-fluoro-1,4,5,6-tetrahydropyrimidin-2-yl)amino)-1H-indazole-6-carboxamido)acetamido)propanoic acid]
- IC50: < 10 nM

SMILES: O=C(O)C[C@H](NC(=O)CNC(=O)c1cc(NC2=NCC(F)CN2)c2cn[nH]c2c1)c1cc(Cl)cc(OC(F)F)c1 (stereo partly drawn) [Example 25-(b), (3S)-3-(3-chloro-5-(difluoromethoxy)phenyl)-3-(2-(4-((5-fluoro-1,4,5,6-tetrahydropyrimidin-2-yl)amino)-1H-indazole-6-carboxamido)acetamido)propanoic acid]
- IC50: < 10 nM

SMILES: O=C(O)C[C@H](NC(=O)CNC(=O)c1cc(NC2=NCC(F)CN2)c2cn[nH]c2c1)c1cc(Br)cc(OC(F)F)c1 (stereo partly drawn) [Example 26-(b), (3S)-3-(3-bromo-5-(difluoromethoxy)phenyl)-3-(2-(4-((5-fluoro-1,4,5,6-tetrahydropyrimidin-2-yl)amino)-1H-indazole-6-carboxamido)acetamido)propanoic acid]
- IC50: < 10 nM

SMILES: O=C(O)C[C@H](NC(=O)CNC(=O)c1cc(NC2=NCC(F)CN2)c2cn[nH]c2c1)c1ccc(F)c(OC(F)F)c1 (stereo partly drawn) [Example 27-(b), (3S)-3-(3-(difluoromethoxy)-4-fluorophenyl)-3-(2-(4-((5-fluoro-1,4,5,6-tetrahydropyrimidin-2-yl)amino)-1H-indazole-6-carboxamido)acetamido)propanoic acid]
- IC50: < 10 nM

SMILES: O=C(O)C[C@H](NC(=O)CNC(=O)c1cc(NC2=NCC(F)CN2)c2cn[nH]c2c1)c1cc(OC(F)F)ccc1F (stereo partly drawn) [Example 28-(b), (3S)-3-(5-(difluoromethoxy)-2-fluorophenyl)-3-(2-(4-((5-fluoro-1,4,5,6-tetrahydropyrimidin-2-yl)amino)-1H-indazole-6-carboxamido)acetamido)propanoic acid]
- IC50: 10 to 50 nM

SMILES: O=C(O)C[C@H](NC(=O)CNC(=O)c1cc(NC2=NCC(F)CN2)c2cn[nH]c2c1)c1cc(OC(F)F)cc(-n2cccn2)c1 (stereo partly drawn) [Example 29-(b), (3S)-3-(3-(difluoromethoxy)-5-(1H-pyrazol-1-yl)phenyl)-3-(2-(4-((5-fluoro-1,4,5,6-tetrahydropyrimidin-2-yl)amino)-1H-indazole-6-carboxamido)acetamido)propanoic acid]
- IC50: < 10 nM

SMILES: O=C(O)C[C@H](NC(=O)CNC(=O)c1cc(NC2=NCC(F)CN2)c2cn[nH]c2c1)c1cc(OC(F)F)cc(OC(F)F)c1 (stereo partly drawn) [Example 30-(b), (3S)-3-(3,5-bis(difluoromethoxy)phenyl)-3-(2-(4-((5-fluoro-1,4,5,6-tetrahydropyrimidin-2-yl)amino)-1H-indazole-6-carboxamido)acetamido)propanoic acid]
- IC50: < 10 nM

SMILES: O=C(O)C[C@H](NC(=O)CNC(=O)c1cc(NC2=NCC(F)CN2)c2cn[nH]c2c1)c1cc(Cl)cc(OC(F)(F)F)c1 (stereo partly drawn) [Example 31-(b), (3S)-3-(3-chloro-5-(trifluoromethoxy)phenyl)-3-(2-(4-((5-fluoro-1,4,5,6-tetrahydropyrimidin-2-yl)amino)-1H-indazole-6-carboxamido)acetamido)propanoic acid]
- IC50: < 10 nM

SMILES: O=C(O)C[C@H](NC(=O)CNC(=O)c1cc(NC2=NCC(F)CN2)c2cn[nH]c2c1)c1cc(Br)cc(OC(F)(F)F)c1 (stereo partly drawn) [Example 32-(b), (3S)-3-(3-bromo-5-(trifluoromethoxy)phenyl)-3-(2-(4-((5-fluoro-1,4,5,6-tetrahydropyrimidin-2-yl)amino)-1H-indazole-6-carboxamido)acetamido)propanoic acid]
- IC50: < 10 nM

SMILES: O=C(O)C[C@H](NC(=O)CNC(=O)c1cc(NC2=NCC(F)CN2)c2cn[nH]c2c1)c1cc(OC(F)(F)F)ccc1F (stereo partly drawn) [Example 33-(b), (3S)-3-(2-(4-((5-fluoro-1,4,5,6-tetrahydropyrimidin-2-yl)amino)-1H-indazole-6-carboxamido)acetamido)-3-(2-fluoro-5-(trifluoromethoxy)phenyl)propanoic acid]
- IC50: < 10 nM

SMILES: O=C(O)C[C@H](NC(=O)CNC(=O)c1cc(NC2=NCC(F)CN2)c2cn[nH]c2c1)c1ccc(F)c(OC(F)(F)F)c1 (stereo partly drawn) [Example 34-(b), (3S)-3-(2-(4-((5-fluoro-1,4,5,6-tetrahydropyrimidin-2-yl)amino)-1H-indazole-6-carboxamido)acetamido)-3-(4-fluoro-3-(trifluoromethoxy)phenyl)propanoic acid]
- IC50: < 10 nM

SMILES: O=C(O)C[C@H](NC(=O)CNC(=O)c1cc(NC2=NCC(F)CN2)c2cn[nH]c2c1)c1cccc(C(F)(F)F)c1 (stereo partly drawn) [Example 35-(b), (3S)-3-(2-(4-((5-fluoro-1,4,5,6-tetrahydropyrimidin-2-yl)amino)-1H-indazole-6-carboxamido)acetamido)-3-(3-(trifluoromethyl)phenyl)propanoic acid]
- IC50: 10 to 50 nM

SMILES: O=C(O)C[C@H](NC(=O)CNC(=O)c1cc(NC2=NCC(F)CN2)c2cn[nH]c2c1)c1cccc(OC(F)(F)F)c1 (stereo partly drawn) [Example 36-(b), (3S)-3-(2-(4-((5-fluoro-1,4,5,6-tetrahydropyrimidin-2-yl)amino)-1H-indazole-6-carboxamido)acetamido)-3-(3-(trifluoromethoxy)phenyl)propanoic acid]
- IC50: 10 to 50 nM

SMILES: O=C(O)C[C@H](NC(=O)CNC(=O)c1cc(NC2=NCC(F)CN2)c2cn[nH]c2c1)c1cccc(OC(F)F)c1 (stereo partly drawn) [Example 37-(b), (3S)-3-(3-(difluoromethoxy)phenyl)-3-(2-(4-((5-fluoro-1,4,5,6-tetrahydropyrimidin-2-yl)amino)-1H-indazole-6-carboxamido)acetamido)propanoic acid]
- IC50: < 10 nM

SMILES: O=C(O)C[C@H](NC(=O)CNC(=O)c1cc(NC2=NCC(F)CN2)c2cn[nH]c2c1)c1cccc(C(F)F)c1 (stereo partly drawn) [Example 38-(b), (3S)-3-(3-(difluoromethyl)phenyl)-3-(2-(4-((5-fluoro-1,4,5,6-tetrahydropyrimidin-2-yl)amino)-1H-indazole-6-carboxamido)acetamido)propanoic acid]
- IC50: 50 to 100 nM

SMILES: O=C(O)C[C@H](NC(=O)CNC(=O)c1cc(NC2=NCC(F)CN2)c2cn[nH]c2c1)c1cccc(C2CC2)c1 (stereo partly drawn) [Example 39-(b), (3S)-3-(3-cyclopropylphenyl)-3-(2-(4-((5-fluoro-1,4,5,6-tetrahydropyrimidin-2-yl)amino)-1H-indazole-6-carboxamido)acetamido)propanoic acid]
- IC50: < 10 nM

SMILES: O=C(O)C[C@H](NC(=O)CNC(=O)c1cc(NC2=NCC(F)CN2)c2cn[nH]c2c1)c1cccc(OC2CC2)c1 (stereo partly drawn) [Example 40-(b), (3S)-3-(3-cyclopropoxyphenyl)-3-(2-(4-((5-fluoro-1,4,5,6-tetrahydropyrimidin-2-yl)amino)-1H-indazole-6-carboxamido)acetamido)propanoic acid]
- IC50: 10 to 50 nM

SMILES: O=C(O)C[C@H](NC(=O)CNC(=O)c1cc(NC2=NCC(F)CN2)c2cn[nH]c2c1)c1cccc(Cl)c1 (stereo partly drawn) [Example 41-(b), (3S)-3-(3-chlorophenyl)-3-(2-(4-((5-fluoro-1,4,5,6-tetrahydropyrimidin-2-yl)amino)-1H-indazole-6-carboxamido)acetamido)propanoic acid]
- IC50: < 10 nM

SMILES: O=C(O)C[C@H](NC(=O)CNC(=O)c1cc(NC2=NCC(F)CN2)c2cn[nH]c2c1)c1cccc(Br)c1 (stereo partly drawn) [Example 42-(b), (3S)-3-(3-bromophenyl)-3-(2-(4-((5-fluoro-1,4,5,6-tetrahydropyrimidin-2-yl)amino)-1H-indazole-6-carboxamido)acetamido)propanoic acid]
- IC50: 10 to 50 nM
